# Counter-ions that a name gives are not always drawn.
# Target: T1, phosphorylated VEGF-R2Δ50 (FLVK-P) (Homo sapiens, UniProt P35968, DEL940-989/E990V)
# T1 construct: VEGF-R2Δ50 contains residues 806-939 and 990-1171; made in house; host or cells: baculovirus/insect cells
# Assay: VEGF-R2 coupled spectrophotometric assay, phosphorylated construct (FLVK-P)
# Assay type: biochemical
# Conditions: not given
# From the text: A construct (VEGF-R2Δ50) of the cytosolic domain of human vascular endothelial growth factor receptor 2 (VEGF-R2) lacking the 50 central residues of the 68 residues of the kinase insert domain was expressed in a baculovirus/insect cell system. Of the 1356 residues of full-length VEGF-R2, VEGF-R2Δ50 contains residues 806-939 and 990-1171, and also one point mutation (E990V) within the kinase insert domain relative to wild-type VEGF-R2. See commonly assigned, co-pending U.S. patent application Ser. No. 09/390,326, filed Sep. 7, 1999, incorporated by reference herein, for discussion of VEGF constructs and expression systems. Autophosphorylation of the purified construct was performed by incubation of the enzyme at a concentration of 4 μM in the presence of 3 mM ATP and 40 mM MgCl2 in 100 mM Hepes, pH 7.5, containing 5% glycerol and 5 mM DTT, at 4° C. for 2 h. […] See Parast et al., Biochemistry, 37, 16788-16801 (1998).
# The production of ADP from ATP that accompanies phosphoryl transfer was coupled to oxidation of NADH using phosphoenolpyruvate (PEP) and a system having pyruvate kinase (PK) and lactic dehydrogenase (LDH). The oxidation of NADH was monitored by following the decrease of absorbance at 340 nm (e340=6.22 cm^−1 mM^−1) using a Beckman DU 650 spectrophotometer. Assay conditions for phosphorylated VEGF-R2Δ50 (indicated as FLVK-P in the tables below) were the following: 1 mM PEP; 250 μM NADH; 50 units of LDH/mL; 20 units of PK/mL; 5 mM DTT; 5.1 mM poly(E4Y1); 1 mM ATP; and 25 mM MgCl2 in 200 mM Hepes, pH 7.5. Assay conditions for unphosphorylated VEGF-R2Δ50 (indicated as FLVK in the tables) were the following: 1 mM PEP; 250 μM NADH; 50 units of LDH/mL; 20 units of PK/mL; 5 mM DTT; 20 mM poly(E4Y1); 3 mM ATP; and 60 mM MgCl2 and 2 mM MnCl2 in 200 mM Hepes, pH 7.5. Assays were initiated with 5 to 40 nM of enzyme. Ki values were determined by measuring enzyme activity in the presence of varying concentrations of test compounds. The data were analyzed using Enzyme Kinetic and Kaleidagraph software.
# T1 sequence (P35968 with tags, fused parts or gaps DEL940-989/E990V limits assumed): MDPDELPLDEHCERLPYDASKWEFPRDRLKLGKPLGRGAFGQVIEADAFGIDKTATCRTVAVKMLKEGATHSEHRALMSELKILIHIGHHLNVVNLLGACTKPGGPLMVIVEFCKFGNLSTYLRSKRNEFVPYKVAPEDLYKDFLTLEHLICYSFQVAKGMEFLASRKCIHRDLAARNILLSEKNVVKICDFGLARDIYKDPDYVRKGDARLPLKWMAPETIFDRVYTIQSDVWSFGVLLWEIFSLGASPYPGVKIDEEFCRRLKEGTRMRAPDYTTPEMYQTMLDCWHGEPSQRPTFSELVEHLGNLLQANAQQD
row,Structure (SMILES),Ki
1,"Cc1cc(NC(=O)c2cccc(CSc3ncnc4[nH]ncc34)c2)no1 [Example B-4, N-(5-Methylisoxazol-3-yl)-3-[(1H-pyrazolo[3,4-d]pyrimidin-4-yl)sulfanylmethyl]benzamide]",35 µM
2,"O=C(NCc1ccncc1)c1cccc(CSc2ncnc3[nH]ncc23)c1 [Example B-5, N-(Pyridin-4-yl)methyl-3-[(1H-pyrazolo[3,4-d]pyrimidin-4-yl)sulfanylmethyl]benzamide]",11 µM
3,"Cc1cc(C)cc(NC(=O)c2cccc(CSc3ncnc4[nH]ncc34)c2)c1 [Example B-21, 3-[(1H-Pyrazolo[3,4-d]pyrimidin-4-yl)sulfanylmethyl]-N(3,5-dimethylphenyl)-benzamide]",0.208 µM
4,O=C(Nc1cccc(OC(F)(F)F)c1)c1cccc(CSc2ncnc3[nH]ncc23)c1 [Example B-20],0.026 µM
5,"Cc1cc(NC(=O)c2cccc(CSc3nc(N)n[nH]3)c2)ccc1C(C)C [Example A-4, N-(4-Isopropyl-3-methylphenyl)-3-[(5-amino-2H-[1,2,4]triazol-3-yl)sulfanylmethyl]benzamide]",13 µM
6,COc1ccc(NC(=O)c2cccc(CSc3ncnc4[nH]ncc34)c2)cn1 [Example B-2],1.82 µM
7,"O=C(Nc1cccc(S(=O)(=O)C(F)(F)F)c1)c1cccc(CSc2ncnc3[nH]ncc23)c1 [Example B-24, 3-[(1H-Pyrazolo[3,4-d]pyrimidin-4-yl)sulfanylmethyl]-N(3-trifluoromethylsulfonylphenyl)-benzamide]",0.037 µM
8,"COc1ccccc1CNC(=O)c1cccc(CSc2ncnc3[nH]ncc23)c1 [Example B-7, N-(2-Methoxybenzyl)-3-[(1H-pyrazolo[3,4-d]pyrimidin-4-yl)sulfanylmethyl]benzamide]",3.31 µM
9,"COc1ccccc1NC(=O)c1cccc(CSc2ncnc3[nH]ncc23)c1 [Example B-9, N-(2-Methoxyphenyl)-3-[(1H-pyrazolo[3,4-d]pyrimidin-4-yl)sulfanylmethyl]benzamide]",17 µM

# Continued, values first:
row,Ki,Structure (SMILES)
1,1.27 µM,"COc1cc(NC(=O)c2cccc(OCc3cccnc3)c2)cc(OC)c1OC [Example K-5, 3-(Pyridin-3-yl)methoxy-N-(3,4,5-trimethoxyphenyl)benzamide]"
2,0.325 µM,"O=C(NOCc1ccccc1)c1cccc(OCc2cncc3ccccc23)c1 [Example R-7, N-Benzyloxy-3-(isoquinolin-4-ylmethoxy)-benzamide]"
3,0.707 µM,"O=C(Nc1ccc2ncccc2c1)c1cccc(OCc2cccnc2)c1 [Example K-8, 3-(Pyridin-3-yl)methoxy-N-quinolin-6-yl-benzamide]"
4,0.138 µM,"COc1cc(NC(=O)c2cccc(OCc3cncc4ccccc34)c2)cc(OC)c1OC [Example K-2, 3-(Isoquinolin-4-yl)methoxy-N-(3,4,5-trimethoxyphenyl)benzamide hydrochloride]"
5,0.122 µM,"C=CCn1ccc2cc(NC(=O)c3cccc(OCc4cccnc4)c3)ccc21 [Example K-7, N-(1-Allyl-1H-indol-5-yl)-3-(pyridin-3-yl)methoxy-benzamide]"
6,0.133 µM,"Cc1ccc2cc(NC(=O)c3cccc(SCc4cccnc4)c3)ccc2n1 [Example D-3, N-(2-Methyl-quinolin-6-yl)-3-(pyridin-3-ylmethylsulfanyl)-benzamide dihydrochloride]"
7,0.0136 µM,"Cc1cc(NC(=O)c2cc(CCc3cncc4ccccc34)ccc2F)ccc1C(C)C [Example T-1, 2-Fluoro-N-(4-isopropyl-3-methyl-phenyl)-5-(2-isoquinolin-4-yl-ethyl)-benzamide]"
8,0.2 µM,"O=C(Nc1ccc2ccccc2c1)c1cccc(OCc2cccnc2)c1 [Example K-6, N-(Naphthalen-2-yl)-3-(pyridin-3-yl)methoxybenzamide]"
9,0.068 µM,"Cc1ccc2cc(NC(=O)c3cccc(CCc4cccnc4)c3)ccc2n1 [Example U-1, N-(2-Methyl-quinolin-6-yl)-3-(2-pyridin-3-yl-ethyl)-benzamide hydrochloride]"

# Same assay, conditions: @ 50 nM; read-out: FLVK-P percent inhibition
row,inhibition at 0.05 µM,Structure (SMILES)
1,6%,"Cc1cc(C)nc(NC(=O)c2cccc(CCc3cncc4ccccc34)c2)c1 [Example S-6, N-(4,6-Dimethyl-pyridin-2-yl)-3-(2-isoquinolin-4-yl-ethyl)-benzamide]"
2,49%,"C=CCc1cc(NC(=O)c2cccc(OCc3cncc4ccccc34)c2)cc(CC=C)c1C [Example R-1, N-(3,5-Diallyl-4-methyl-phenyl)-3-(isoquinolin-4-ylmethoxy)-benzamide]"

# Same assay, conditions: @ 1 μM; read-out: FLVK-P percent inhibition
row,Structure (SMILES),inhibition at 1 µM
1,"O=C(Nc1ccccc1)c1cccc(CCc2cncc3ccccc23)c1 [Example S-1, 3-(2-Isoquinolin-4-yl-ethyl)-N-phenyl-benzamide]",2%
2,CC(O)c1cccc(NC(=O)c2cccc(CSc3ncnc4[nH]ncc34)c2)c1 (centres unmarked) [Example B-22],32%
3,"CC(C)c1ccc(NC(=O)c2cccc(CSc3ncnc4[nH]ncc34)c2)cc1 [Example B-19, 3-[(1H-Pyrazolo[3,4-d]pyrimidin-4-yl)sulfanylmethyl]-N(4-isopropylphenyl)-benzamide]",42%
4,"CN(C)c1ccc(NC(=O)c2cccc(CSc3ncnc4[nH]ncc34)c2)cc1 [Example B-23, 3-[(1H-Pyrazolo[3,4-d]pyrimidin-4-yl)sulfanylmethyl]-N(4-dimethylaminophenyl)-benzamide]",17%
5,"CN(C)c1cccc(NC(=O)c2cccc(CSc3ncnc4[nH]ncc34)c2)c1 [Example B-25, 3-[(1H-Pyrazolo[3,4-d]pyrimidin-4-yl)sulfanylmethyl]-N(3-dimethylaminophenyl)-benzamide]",26%

# Results, then the compound that gave them:
row,inhibition at 1 µM,Structure (SMILES)
1,28%,"CC1CC(NC(=O)c2cccc(CCc3cncc4ccccc34)c2)CC(C)(C)C1 (centres unmarked) [Example S-2, 3-(2-Isoquinolin-4-yl-ethyl)-N-(3,3,5-trimethyl-cyclohexyl)-benzamide]"
2,42%,"COc1cc(C(=O)Nc2cccc(CSc3ncnc4[nH]ncc34)c2)ccc1O [Example V-3, N-{3-[(1H-pyrazolo[3,4-d]-pyrimidin-4-yl)sulfanylmethyl]phenyl}-(4-hydroxy-3-methoxy)benzamide]"
3,16%,"COc1cc(/C=C/c2cc(CNc3cccc(C(=O)Nc4ccccc4)c3)n[nH]2)ccc1O [Example I-2, 3-[({5-[(E)-2-(4-hydroxy-3-methoxyphenyl)ethenyl]-1H-pyrazol-3-yl}methyl)amino]-N-phenylbenzamide]"
4,9%,"Cc1cc(C)c2ccc(NC(=O)c3cccc(OCc4cncc5ccccc45)c3)nc2n1 [Example R-9, N-(5,7-dimethyl[1,8]naphthydrin-2-yl)-3-(isoquinolin-4-ylmethoxy)-benzamide]"

# Same assay, conditions: @ 5 μM; read-out: FLVK-P percent inhibition
row,inhibition at 5 µM,Structure (SMILES)
1,4%,"O=C(NNc1ccccc1)c1cccc(OCc2cncc3ccccc23)c1 [Example R-8, 3-(Isoquinolin-4-ylmethoxy)-benzoic acid N′-phenyl-hydrazide]"
2,16%,"O=C(NNc1ccc(C(F)(F)F)cc1)c1cccc(OCc2cncc3ccccc23)c1 [Example R-6, 3-(Isoquinolin-4-ylmethoxy)-benzoic acid N′-(4-trifluoromethyl-phenyl)hydrazide]"

# Same assay, conditions: μM
row,Ki,Structure (SMILES)
1,100 µM,"COc1cc(NC(=O)c2cccc(CSc3nc(N)n[nH]3)c2)cc(OC)c1OC [Example A-2, N-(3,4,5-Trimethoxyphenyl)-3-[(5-amino-2H-[1,2,4]triazol-3-yl)sulfanylmethy]benzamide]"

# Reference: US6635641B2 (Agouron Pharmaceuticals, Inc., priority 2000, dated 2003)
